From patent publication US20130231458A1, “POLYPEPTIDE FOR PREVENTING AND TREATING CELL HYPERPLASIA” (priority 2011, published 2013)

Key:
erythrocytes = settings: very low concentration (lower than 5 μM); cited from earlier work
lung cancer cells = assay: Xenograft model of lung cancer in nude mice, tumor volume; format: in vivo, nude mice (NU/NU)
Procedure: The polypeptide of the present invention is preventively injected into the rear parts of the necks of four nude mice (nude mice—NU/NU) for a week (5 times per week at a dose of 50 mg/Kg). Next, 1×10^6 lung cancer cells are injected into the hypodermic tissue of the right side of the abdomen of each nude mouse on Day 1. The abovementioned four nude mice function as the medicine test group. Next, the polypeptide is delivered to each nude mouse of the medicine test group at a dose of 50 mg/Kg 5 times per week from Day 1 to Day 43. Meanwhile, the weight and cancer size of each nude mouse of the medicine test group is recorded. […] Normal saline having a pH of 7.2-7.4 is subcutaneously injected into the four nude mice of the negative control group for a week (5 times per week). Next, 1×10^6 lung cancer cells are injected into the hypodermic tissue of the right side of the abdomen of each nude mouse of the negative control group on Day 1. Next, normal saline is delivered to each nude mouse of the negative control group 5 times per week from Day 1 to Day 43. Meanwhile, the weight and cancer size of each nude mouse of the negative control group is recorded. […] 1×10^6 lung cancer cells are injected into the hypodermic tissue of the right side of the abdomen of each nude mouse of the positive control group on Day 1. Next, a small-molecule anti-cancer drug Doxorubicin is intravenously injected into a region near the abdomen of each nude mouse of the positive control group once per week at a dose of 5 mg/Kg from Day 1 to Day 43 (refer to F Pastorino et. al., Clin. Cancer Res. 14(22): 7320-7329, 2008). Meanwhile, the weight and cancer size of each nude mouse of the positive control group is recorded. Different from the abovementioned two groups, medicine is not applied to the positive control group before Day 1. […] The mice of the three groups are dissected for examining and recording the weight of the tumor tissue on Day 43.

[1] = Weights, motility and side effects of nude mice in the xenograft experiment; format: in vivo, nude mice (NU/NU)
Procedure: The polypeptide of the present invention is preventively injected into the rear parts of the necks of four nude mice (nude mice—NU/NU) for a week (5 times per week at a dose of 50 mg/Kg). Next, 1×10^6 lung cancer cells are injected into the hypodermic tissue of the right side of the abdomen of each nude mouse on Day 1. The abovementioned four nude mice function as the medicine test group. Next, the polypeptide is delivered to each nude mouse of the medicine test group at a dose of 50 mg/Kg 5 times per week from Day 1 to Day 43. Meanwhile, the weight and cancer size of each nude mouse of the medicine test group is recorded. The negative control group also has four nude mice. Normal saline having a pH of 7.2-7.4 is subcutaneously injected into the four nude mice of the negative control group for a week (5 times per week). Next, 1×10^6 lung cancer cells are injected into the hypodermic tissue of the right side of the abdomen of each nude mouse of the negative control group on Day 1. Next, normal saline is delivered to each nude mouse of the negative control group 5 times per week from Day 1 to Day 43. Meanwhile, the weight and cancer size of each nude mouse of the negative control group is recorded. The positive control group also has four nude mice. 1×10^6 lung cancer cells are injected into the hypodermic tissue of the right side of the abdomen of each nude mouse of the positive control group on Day 1. Next, a small-molecule anti-cancer drug Doxorubicin is intravenously injected into a region near the abdomen of each nude mouse of the positive control group once per week at a dose of 5 mg/Kg from Day 1 to Day 43 (refer to F Pastorino et. al., Clin. Cancer Res. 14(22): 7320-7329, 2008). Meanwhile, the weight and cancer size of each nude mouse of the positive control group is recorded. Different from the abovementioned two groups, medicine is not applied to the positive control group before Day 1. The medicine test group, negative control group and positive group are observed until Day 43. The mice of the three groups are dissected for examining and recording the weight of the tumor tissue on Day 43.

CC[C@H](C)[C@H](NC(=O)CN)C(=O)NCC(=O)N[C@@H](C)C(=O)N[C@H](C(=O)N[C@@H](CC(C)C)C(=O)N[C@@H](CCCCN)C(=O)N[C@H](C(=O)N[C@@H](CC(C)C)C(=O)N[C@H](C(=O)N[C@H](C(=O)NCC(=O)N[C@@H](CC(C)C)C(=O)N1CCC[C@H]1C(=O)N[C@@H](C)C(=O)N[C@@H](CC(C)C)C(=O)N[C@H](C(=O)N[C@@H](CO)C(=O)N[C@@H](Cc1c[nH]c2ccccc12)C(=O)N[C@H](C(=O)N[C@@H](CCCCN)C(=O)N[C@@H](CCCNC(=N)N)C(=O)N[C@@H](CCCCN)C(=O)N[C@@H](CCCNC(=N)N)C(=O)N[C@@H](CCC(N)=O)C(=O)N[C@@H](CCC(N)=O)C(N)=O)[C@@H](C)CC)[C@@H](C)CC)[C@@H](C)O)[C@@H](C)O)C(C)C)C(C)C [melittin]
erythrocytes damaged (erythrocytes): about 90%

COc1cccc2c1C(=O)c1c(O)c3c(c(O)c1C2=O)C[C@@](O)(C(=O)CO)C[C@@H]3O[C@H]1C[C@H](N)[C@H](O)[C@H](C)O1 [Dox, Doxorubicin]
Tumor Volumes of Nude Mice (lung cancer cells; D22, polypeptide 50 mg/Kg s.c. 5 times per week (plus one week before D1), Dox 5 mg/Kg i.v. once per week): 57.8 mm^3
Tumor Volumes of Nude Mice (lung cancer cells; D29, same dosing): 373.8 mm^3
Tumor Volumes of Nude Mice (lung cancer cells; D33, same dosing): 553.5 mm^3
Tumor Volumes of Nude Mice (lung cancer cells; D36, same dosing): 632.6 mm^3
Tumor Volumes of Nude Mice (lung cancer cells; D40, same dosing): 884.5 mm^3
Tumor Volumes of Nude Mice (lung cancer cells; D43, same dosing): 1308.9 mm^3
ratio of the average tumor volumes of treated group and negative control group (saline) (lung cancer cells; at best, Day 40): 52.0%
ratio of the average tumor volumes of treated group and negative control group (saline) (lung cancer cells; end of the experiment (Day 43)): 83.05%
Weights of Nude Mice ([1]; D1, polypeptide 50 mg/Kg s.c. 5 times per week (plus one week before D1), Dox 5 mg/Kg i.v. once per week): 25.6 gram
Weights of Nude Mice ([1]; D5, same dosing): 26.5 gram
Weights of Nude Mice ([1]; D8, same dosing): 27.8 gram
Weights of Nude Mice ([1]; D12, same dosing): 28.2 gram
Weights of Nude Mice ([1]; D15, same dosing): 28.8 gram
Weights of Nude Mice ([1]; D19, same dosing): 30.4 gram
Weights of Nude Mice ([1]; D22, same dosing): 30.0 gram
Weights of Nude Mice ([1]; D26, same dosing): 30.4 gram
Weights of Nude Mice ([1]; D29, same dosing): 30.0 gram
Weights of Nude Mice ([1]; D33, same dosing): 31.5 gram
Weights of Nude Mice ([1]; D36, same dosing): 32.1 gram
Weights of Nude Mice ([1]; D40, same dosing): 32.5 gram
Weights of Nude Mice ([1]; D43, same dosing): 32.8 gram
weights and motilities during the experiment ([1]; Day 1 to Day 43): do not vary significantly
